Legend:
Format in all cases: in vivo
[1] = system: HELAN = sunflower (Helainthus annuus); test: General postemergence herbicidal activity, sunflower; settings: post-emergence, 336 h; post-emergent, 140 g ai/ha, visual score after 14 days (0 no injury, 100 complete kill)
Protocol: Seeds or nutlets of the desired test plant species were planted in Sun Gro MetroMix® 306 planting mixture, which typically has a pH of 6.0 to 6.8 and an organic matter content of about 30 percent, in plastic pots with a surface area of 64 square centimeters. When required to ensure good germination and healthy plants, a fungicide treatment and/or other chemical or physical treatment was applied. The plants were grown for 7-21 days in a greenhouse with an approximate 15 hour photoperiod which was maintained at about 23-29° C. during the day and 22-28° C. during the night. Nutrients and water were added on a regular basis and supplemental lighting was provided with overhead metal halide 1000-Watt lamps as necessary. The plants were employed for testing when they reached the first or second true leaf stage.
A weighed amount, determined by the highest rate to be tested, of each test compound was placed in a 25 mL glass vial and was dissolved in 4 mL of a 97:3 v/v (volume/volume) mixture of acetone and dimethyl sulfoxide (DMSO) to obtain concentrated stock solutions. […] The concentrated stock solutions obtained were diluted with 20 mL of an aqueous mixture containing acetone, water, isopropyl alcohol, DMSO, Atplus 411F crop oil concentrate, and Triton X-155 surfactant in a 48.5:39:10:1.5:1.0:0.02 v/v ratio to obtain spray solutions containing the highest application rates. Additional application rates were obtained by serial dilution of 12 mL of the high rate solution into a solution containing 2 mL of 97:3 v/v (volume/volume) mixture of acetone and dimethyl sulfoxide (DMSO) and 10 mL of an aqueous mixture containing acetone, water, isopropyl alcohol, DMSO, Atplus 411F crop oil concentrate, and Triton X-155 surfactant in a 48.5:39:10:1.5:1.0:0.02 v/v ratio to obtain ½×, ¼×, ⅛× and 1/16× rates of the high rate. Compound requirements are based upon a 12 mL application volume at a rate of 187 L/ha. Formulated compounds were applied to the plant material with an overhead Mandel track sprayer equipped with a 8002E nozzles calibrated to deliver 187 L/ha over an application area of 0.503 square meters at a spray height of 18 inches (43 cm) above the average plant canopy height. Control plants were sprayed in the same manner with the solvent blank.
The treated plants and control plants were placed in a greenhouse as described above and watered by sub-irrigation to prevent wash-off of the test compounds. After 14 days, the condition of the test plants as compared with that of the untreated plants was determined visually and scored on a scale of 0 to 100 percent where 0 corresponds to no injury and 100 corresponds to complete kill.
By applying the well-accepted probit analysis as described by J. Berkson in Journal of the […], 48, 565 (1953) and by D. Finney in “Probit Analysis” Cambridge University Press (1952), the above data can be used to calculate GR50 and GR80 values, which are defined as growth reduction factors that correspond to the effective dose of herbicide required to kill or control 50 percent or 80 percent, respectively, of a target plant.

[2] = system: ORYSA = rice (Orysa sativa var. Japonica); test: Herbicidal activity in transplanted paddy rice, rice; settings: Oryza sativa, 480 h, water-injected paddy, rice (crop), after 20-22 days; for pest or weed control at 17.5 g/ha: 17.5 g ai/ha; for pest or weed control at 70 g/ha: 70 g ai/ha; for pest or weed control at 140 g/ha: 140 g ai/ha; for pest or weed control at 35 g/ha: 35 g ai/ha
Protocol: (§1) Weed seeds or nutlets of the desired test plant species were planted in puddled soil (mud) prepared by mixing a non-sterilized mineral soil (28 percent silt, 18 percent clay, and 54 percent sand, with a pH of about 7.3 to 7.8 and an organic matter content of about 1.0 percent) and water at a ratio of 100 kg of soil to 19 L of water. The prepared mud was dispensed in 250 mL aliquots into 480 mL non-perforated plastic pots with a surface area of 91.6 square centimeters leaving a headspace of 3 centimeters in each pot. Rice seeds were planted in Sun Gro MetroMix® 306 planting mixture, which typically has a pH of 6.0 to 6.8 and an organic matter content of about 30 percent, in plastic plug trays. Seedlings at the second or third leaf stage of growth were transplanted into 650 mL of mud contained in 960 mL non-perforated plastic pots with a surface area of 91.6 square centimeters 4 days prior to herbicide application. The paddy was created by filling the 3 centimeter headspace of the pots with water. When required to ensure good germination and healthy plants, a fungicide treatment and/or other chemical or physical treatment was applied. The plants were grown for 4-14 days in a greenhouse with an approximate 14 hour photoperiod which was maintained at about 29° C. during the day and 26° C. during the night. Nutrients were added as Osmocote (17:6:10, N:P:K+minor nutrients) at 2 g (grams) per cup. Water was added on a regular basis to maintain the paddy flood, and supplemental lighting was provided with overhead metal halide 1000-Watt lamps as necessary. The plants were employed for testing when they reached the second or third true leaf stage. A weighed amount, determined by the highest rate to be tested, of each test compound was placed in a 120 mL glass vial and was dissolved in 20 mL of acetone to obtain concentrated stock solutions. […] The concentrated stock solutions obtained were diluted with 20 mL of an aqueous mixture containing 0.01% Tween 20 (v/v). Application rates of ½×, ¼×, ⅛× and 1/16× of the high rate were obtained by injecting an appropriate amount of the stock solution into the aqueous layer of the paddy. Control plants were treated in the same manner with the solvent blank. The treated plants and control plants were placed in a greenhouse as described above and water was added as needed to maintain a paddy flood. After 20-22 days, the condition of the test plants as compared with that of the untreated plants was determined visually and scored on a scale of 0 to 100 percent where 0 corresponds to no injury and 100 corresponds to complete kill.

[3] = system: MOOVA = Monochoria vaginalis; test: Herbicidal activity in transplanted paddy rice, Monochoria vaginalis; settings: Pontederia vaginalis, 480 h, water-injected paddy, after 20-22 days; for pest or weed control at 17.5 g/ha: 17.5 g ai/ha; for pest or weed control at 70 g/ha: 70 g ai/ha; for pest or weed control at 140 g/ha: 140 g ai/ha; for pest or weed control at 35 g/ha: 35 g ai/ha
Protocol: as §1

Row | SMILES | pest or weed control at 140 g/ha [1] [%] | pest or weed control at 17.5 g/ha [2] [%] | pest or weed control at 17.5 g/ha [3] [%] | also measured
1 | CCOc1c(Cl)ccc(-c2nc(N)c(Cl)c(C(=O)OC)n2)c1F [Compound 1, 6-amino-5-chloro-2-(4-chloro-3-ethoxy-2-fluorophenyl)-pyrimidine-4-carboxylic acid methyl ester] | 100 | 5 | 100 | –
2 | COC(=O)c1nc(-c2c(F)cc(Cl)c(OC)c2F)nc(N)c1Cl [Compound 2, 6-amino-5-chloro-2-(4-chloro-2,6-difluoro-3-methoxy-phenyl)pyrimidine-4-carboxylic acid methyl ester] | 100 | – | – | pest or weed control at 70 g/ha [2]: 0%; pest or weed control at 70 g/ha [3]: 100%
3 | COC(=O)c1nc(-c2ccc(Cl)c(OC)c2F)nc(N)c1Cl [Compound 3, 6-amino-5-chloro-2-(4-chloro-2-fluoro-3-methoxyphenyl)-pyrimidine-4-carboxylic acid methyl ester] | 100 | 0 | 100 | –
4 | COC(=O)c1nc(-c2ccc(Cl)c(OC)c2Cl)nc(N)c1Cl [Compound 6, 6-Amino-5-chloro-2-(2,4-dichloro-3-methoxyphenyl)pyrimidine-4-carboxylic acid methyl ester] | 100 | 0 | 100 | –
5 | COC(=O)c1nc(-c2ccc(Cl)c(C(F)F)c2F)nc(N)c1Cl [Compound 7, 6-Amino-5-chloro-2-(4-chloro-3-difluoromethyl-2-fluorophenyl)pyrimidine-4-carboxylic acid methyl ester] | 100 | – | – | pest or weed control at 140 g/ha [2]: 0%; pest or weed control at 140 g/ha [3]: 100%
6 | COC(=O)c1nc(-c2ccc(Cl)c(N(C)C)c2F)nc(N)c1Cl [Compound 8, 6-Amino-5-chloro-2-(4-chloro-3-dimethylamino-2-fluorophenyl)pyrimidine-4-carboxylic acid methyl ester] | 100 | – | – | pest or weed control at 35 g/ha [2]: 0%; pest or weed control at 35 g/ha [3]: 100%
7 | COC(=O)c1nc(-c2ccc3c(c2F)OCO3)nc(N)c1Cl [Compound 9, 6-Amino-5-chloro-2-(4-fluorobenzo[1,3]dioxol-5-yl)pyrimidine-4-carboxylic acid methyl ester] | 100 | – | – | pest or weed control at 35 g/ha [2]: 0%; pest or weed control at 35 g/ha [3]: 99%
8 | COC(=O)c1nc(-c2ccc(Cl)c(OCC(F)F)c2F)nc(N)c1Cl [Compound 10, 6-Amino-5-chloro-2-[4-chloro-3-(2,2-difluoroethoxy)-2-fluorophenyl]-pyrimidine-4-carboxylic acid methyl ester] | 80 | – | – | pest or weed control at 140 g/ha [2]: 0%; pest or weed control at 140 g/ha [3]: 100%
9 | COC(=O)c1nc(-c2ccc(Cl)c(OC)c2F)nc(N)c1Br [Compound 13, 6-amino-5-bromo-2-(4-chloro-2-fluoro-3-methoxyphenyl)-pyrimidine-4-carboxylic acid methyl ester] | 100 | – | – | pest or weed control at 70 g/ha [2]: 0%; pest or weed control at 70 g/ha [3]: 100%
